The subject of data set [1] is Male CD-1 mice. Description: Calcium-induced arrhythmia model (time to AV block after CaCl2 infusion). In kind it is in vivo. The settings on record: compound IV 3 min before CaCl2 infusion (100 mg/kg/min), saline control 62-78. The protocol: Peptides suitable for administration to cardiac cells can be identified in an in vivo model of calcium-induced arrhythmias according to the model of Lynch et al. (1981) J Cardiovasc. Pharmacol. 3: 49-60. Male CD-1 mice are anaesthetized with Ketamine (75 mg/kg) and medetomidine (1 mg/kg) IP. An i.v. cannula is inserted into the tail vein. A lead II ECG signal is recorded continuously by positioning stainless steel ECG electrodes on the right forelimb and […]. The ground electrode is placed on the right hind limb. The signal is amplified and filtered using Gould physiograph components and po-ne-mah data acquisition software. After a 90 sec equilibration period test compound is injected into the tail vein (over 30 seconds). Mice pre-treated with vehicle are tested as control animals. The injection volume is 100 μl/30 g mice in all experiments. Infusion of CaCl2 (30 mg/mL, 0.1 mL/min/30 g mice, 100 mg/kg/min) is started 3 min after IV administration of drug or vehicle (0.9% saline). The time lag to onset of cardiac conduction block is determined as the time from the start of CaCl2 infusion until the first arrhythmic event occurred. The first conduction block is defined as the first RR-interval, larger than or equal to 3 times one RR-interval from the pre-treatment period. The first arrhythmic event occurring is either a second degree AV-block (intermittent failure of the AV conduction characterized by a P-wave without the concomitant QRS complex) or a second degree SA block (prolonged RR-interval and a QRS-complex without a preceding P-wave). Responses are expressed relative to the time until 2nd degree AV-block occurred in vehicle treated mice.
The anti-arrhythmic effect of compounds according to the present teachings was tested in a model of calcium-induced arrhythmias according to the model of Lynch et al., J. Cardiovasc. Pharmacol. (1981), 3: 49-60. Male CD-1 mice were anaesthetized with Ketamine (75 mg/kg) and medetomidine (1 mg/kg) IP. An i.v. cannula was inserted into the tail vein. A lead II ECG signal was recorded continuously by positioning stainless steel ECG electrodes on the right forelimb and […]. The ground electrode was placed on the right hind limb. The signal was amplified and filtered using Gould physiograph components and po-ne-mah data acquisition software. After a 90 sec equilibration period test compound was injected into the tail vein (over 30 seconds). Mice pre-treated with vehicle (0.9% saline) were tested as control animals. The injection volume was 100 μl/30 g mice in all experiments. Infusion of CaCl2 (30 mg/mL, 0.1 mL/min/30 g mice, 100 mg/kg/min) was started 3 min after IV administration of drug or vehicle. The time lag to onset of cardiac conduction block was determined as the time from the start of CaCl2 infusion until the first arrhythmic event occurred. The first conduction block was defined as the first RR-interval, larger/or equal to, 3 times one RR-interval from the pre-treatment period. The first arrhythmic event occurring was either a second degree AV-block (intermittent failure of the AV conduction characterized by a P-wave without the concomitant QRS complex) or a second degree SA block (prolonged RR-interval and a QRS-complex without a preceding P-wave).
Mice pre-treated with vehicle (0.9% saline) were tested on all days as a measure for control level in untreated animal. Injection volume was 100 μL in all experiments. The time lag to onset of arrhythmias was determined as the time from the start of CaCl2 infusion until the first event of conduction block defined as intermittent failure of the SA or AV conduction characterized by delayed P-wave activation (SA block) or by a P-wave without the concomitant QRS complex (AV block). The time lag to onset of AV block is given below in Table 2.

The nature of data set [2]: Plasma stability assay. The settings on record: male rat plasma (1:1 plasma:pH 7.4 buffer), 1 μM, 37° C., 3 hours.
Description: To predict its plasma stability, compounds of the present teachings were incubated in male rat plasma (1:1 plasma:pH 7.4 buffer) at 1 μM concentration at 37° C. After 3 hours, the reaction was quenched with cold acetonitrile. The solution was centrifuged and the supernatant was analyzed with LC-MS using the following HPLC conditions: Thermo Hypersil-Keystone Aquasil C18 column (50 mm×2.1 mm, 5 μM) at ambient temperature; Solvent A: 0.1% formic acid in water; Solvent B: 0.1% formic acid in acetonitrile; solvent gradient: 100% A to 50% A over 2.5 min, to 10% A over 1.5 min, and returning to 100% A and re-equilibrating for 1.5 min; flowrate: 0.8 mL/min. The percent of the compound remaining was calculated by dividing the 3-hour incubation sample LC-MS signal area counts by the time=0 area counts.
The nature of data set [3]: Metabolic stability assay (liver microsomes). Particulars: male, rat.
Description: To predict the stability of the compound under first pass (Phase I) metabolism, compounds of the present teachings were incubated with male rat liver microsomes at 1 μM concentration and 0.5 mg/mL protein concentration at 37° C. After 15 min, the reaction was quenched with cold acetonitrile. The solution was centrifuged and the supernatant was analyzed with LC-MS using the HPLC conditions described in section 3 above.

SMILES strings stand for the structures. Bounds are passed on as bounds.

On to `CC(C)(C)OC(=O)NCC(=O)N1C[C@H](NC(=O)c2ccccc2)C[C@H]1C(=O)O` [Compound 83, (2S,4R) 4-benzamido-1-(2-(tert-butoxycarbonylamino)acetyl) pyrrolidine-2-carboxylic acid], for which the “Time to AV block” value in data set [1] was 110.9 s. Besides, in data set [2], the “% Remaining” value stood at 100%. The half-life (usually the time in which the quantity being followed falls by half) at 1 μM in data set [3] was > 30 min.
On to `NCC(=O)Nc1cc(NC(=O)c2ccccc2)cc(C(=O)O)c1` [Compound 26, 3-(2-Amino-acetylamino)-5-benzoylamino-benzoic acid], for which the “Time to AV block” value in data set [1] was 122.8 s.
Take `CC(C)(C)OC(=O)NCC(=O)N1C[C@H](NC(=O)c2ccccc2)C[C@H]1C(N)=O` [Compound 69, (2S,4R) 4-benzamido-1-(2-(tert-butoxycarbonylamino)acetyl) pyrrolidine-2-carboxamide]: the “half-life in male rat liver microsomes” value is recorded as “greater than 30 minutes”.
Regarding `CC(=O)NCC(=O)N1C[C@H](NC(=O)c2ccccc2)C[C@H]1C(=O)O` [Compound 80, (2S,4R) 1-(2-acetamidoacetyl)-4-benzamidopyrrolidine-2-carboxylic acid], the “Time to AV block” value in data set [1] is 111.5 s. Moreover, the “% Remaining” value in data set [2] is recorded as 100%. Moreover, the half-life at 1 μM in data set [3] was > 30 min.
As to `CC(C)CNC(=O)[C@@H]1C[C@@H](NC(=O)c2ccccc2)CN1C(=O)CN` [Compound 72, (2S,4R) 1-(2-aminoacetyl)-4-benzamido-N-isobutylpyrrolidine-2-carboxamide], the “% Remaining” value in data set [2] turned out to be 88%. The half-life at 1 μM in data set [3] was > 30 min.
`CNCC(=O)N1C[C@H](NC(=O)c2ccccc2)C[C@H]1C(=O)O` [Compound 81, (2S,4R) 4-benzamido-1-(2-(methylamino)acetyl)-pyrrolidine-2-carboxylic acid]: in data set [1], the “Time to AV block” value was 123.2 s. The “% Remaining” value in data set [2] came to 100%. Further, in data set [3], the half-life at 1 μM was > 30 min.
`CCC(CC)NC(=O)[C@@H]1C[C@@H](NC(=O)c2ccccc2)CN1C(=O)CN` [Compound 70, (2S,4R) 1-(2-aminoacetyl)-4-benzamido-N-(pentan-3-yl)pyrrolidine-2-carboxamide]: in data set [2], the “% Remaining” value worked out at 93%. Moreover, the half-life at 1 μM in data set [3] is > 30 min.
`NCC(=O)N1C[C@H](NC(=O)c2ccccc2)C[C@H]1C(=O)NC1CCC1` [Compound 73, (2S,4R) 1-(2-aminoacetyl)-4-benzamido-N-cyclobutylpyrrolidine-2-carboxamide]: the “% Remaining” value in data set [2] is on record as 95%. Besides, in data set [3], the half-life at 1 μM is > 30 min.
Turning to `O=C(N[C@@H]1C[C@@H](C(=O)O)N(C(=O)CO)C1)c1ccccc1` [Compound 52, (2S,4R) 4-Benzoylamino-1-(2-hydroxy-acetyl)-pyrrolidine-2-carboxylic acid], the “Time to AV block” value in data set [1] is 135.6 s.
For the compound `NCC(=O)N1C[C@H](NC(=O)c2ccccc2)C[C@H]1C(N)=O` [Compound 64, (2S,4R) 1-(2-aminoacetyl)-4-benzamidopyrrolidine-2-carboxamide], the “Time to AV block” value in data set [1] is 111.7 s. Also, the “% Remaining” value in data set [2] worked out at 27%. Besides, the half-life at 1 μM in data set [3] is > 30 min.
Regarding `CN(C)CC(=O)N1C[C@H](NC(=O)c2ccccc2)C[C@H]1C(=O)O` [Compound 84, (2S,4R) 4-benzamido-1-(2-(dimethylamino)acetyl)pyrrolidine-2-carboxylic acid], the “Time to AV block” value in data set [1] came to 108.8 s. Moreover, in data set [2], the “% Remaining” value is 100%. The half-life at 1 μM in data set [3] is > 30 min.
The like results for `CCNC(=O)[C@@H]1C[C@@H](NC(=O)c2ccccc2)CN1C(=O)CN` [Compound 66, (2S,4R) 1-(2-aminoacetyl)-4-benzamido-N-ethylpyrrolidine-2-carboxamide] were, in that order, 122.7 s, 100% and > 30 min.
The like results for `CNC(=O)[C@@H]1C[C@@H](NC(=O)c2ccccc2)CN1C(=O)CN` [Compound 65, (2S,4R) 1-(2-aminoacetyl)-4-benzamido-N-methylpyrrolidine-2-carboxamide] were, in that order, 115.2 s, 87% and > 30 min.
Regarding `O=C(N[C@@H]1C[C@@H](C(=O)O)N(C(=O)CNC(=O)C(F)(F)F)C1)c1ccccc1` [Compound 82, (2S,4R) 4-benzamido-1-(2-(2,2,2-trifluoroacetamido)acetyl)pyrrolidine-2-carboxylic acid], in data set [1], the “Time to AV block” value came out at 113.8 s. In addition, the “% Remaining” value in data set [2] is on record as 34%. In addition, the half-life at 1 μM in data set [3] is > 30 min.
As to `CC(C)NC(=O)[C@@H]1C[C@@H](NC(=O)c2ccccc2)CN1C(=O)CN` [Compound 67, (2S,4R) 1-(2-aminoacetyl)-4-benzamido-N-isopropylpyrrolidine-2-carboxamide], the “Time to AV block” value in data set [1] worked out at 134.4 s. Further, the “% Remaining” value in data set [2] amounted to 100%. Moreover, the half-life at 1 μM in data set [3] is > 30 min.
As to `O=C(CO)Nc1cc(NC(=O)c2ccccc2)cc(C(=O)O)c1` [Compound 54, 3-Benzoylamino-5-(2-hydroxy-acetylamino)-benzoic acid], the “Time to AV block” value in data set [1] worked out at 121.7 s.
For the compound `NCC(=O)N1C[C@H](NC(=O)c2ccccc2)C[C@H]1C(=O)NC1CCCC1` [Compound 71, (2S,4R) 1-(2-aminoacetyl)-4-benzamido-N-cyclopentylpyrrolidine-2-carboxamide], in data set [2], the “% Remaining” value turned out to be 90%. In addition, in data set [3], the half-life at 1 μM is > 30 min.
For `NC(=O)C1N(C(=O)CO)CCN1C(=O)c1ccccc1` (stereo not drawn) [Compound 56, 1-Benzoyl-3-(2-hydroxy-acetyl)-imidazolidine-2-carboxylic acid amide], in data set [1], the “Time to AV block” value came out at 128.1 s.
On the same count and under the same terms, the result for `NC(CCC(=O)O)C(=O)N1C[C@H](NC(=O)c2ccccc2)C[C@H]1C(=O)O` (stereo partly drawn) [Compound 6, (2S,4R)1-(2-Amino-4-carboxy-butyryl)-4-benzoylamino-pyrrolidine-2-carboxylic acid] reads 117.9 s.
`O=CNCC(=O)N1C[C@H](NC(=O)c2ccccc2)C[C@H]1C(=O)O` [Compound 85, (2S,4R) 4-benzamido-1-(2-formamidoacetyl)pyrrolidine-2-carboxylic acid]: the “% Remaining” value in data set [2] is recorded as 107%.
`NCC(=O)N1C[C@H](NC(=O)c2ccccc2)C[C@H]1C(=O)NC1CC1` [Compound 68, (2S,4R) 1-(2-aminoacetyl)-4-benzamido-N-cyclopropylpyrrolidine-2-carboxamide]: the “Time to AV block” value in data set [1] stood at 143.8 s. Moreover, in data set [2], the “% Remaining” value is given as 96%. The half-life at 1 μM in data set [3] is > 30 min.

Values taken from patent US8431540B2, “Modified lysine-mimetic compounds” (Zealand Pharma A/S, priority 2005, dated 2013).
